In patent US11111245B2, “Derivatives of N-cycloalkyl/heterocycloalkyl-4-(imidazo[1,2-a]pyridine)pyrimidin-2-amine as therapeutic agents” (Aucentra Therapeutics Pty Ltd, priority 2017, dated 2021):

Tests used:
CDK9/T1 = CDK9/T1 (Homo sapiens, UniProt P50750); assay: ADP Glo Kinase assay CDK9/T1; type: biochemical; settings: CDK9T1; read-out: CDK inhibition, Ki (μM) CDK9T1
Outline: (§1)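 Other CDKs and further kinases were profiled externally by radiometric assay. In-house ADP Glo assays covered CDK4/D1 and CDK6/D3 (RB-CTF substrate, pH 7.5 Tris buffer with MgCl2, DTT, BSA) and CDK9/T1 (RBER-IRStide substrate), 40 min at 37° C.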

CDKs and other kinases [1] = biological target: T1, CDKs and other kinases (Homo sapiens, UniProt P24941); assay: Radiometric kinase assay (Eurofins Pharma Discovery or Reaction Biology Corporation Kinase Profiler); type: biochemical; settings: CDK2A; for remaining activity at 10 µM: compound at 10 μM, read-out: residual activity (%) at 10 μM CDK2A; for Ki: read-out: CDK inhibition, Ki (μM) CDK2A
T1 construct: other: CDK2A; residual activity (%) at 10 μM CDK2A; compound at 10 μM
Outline: as §1

CDKs and other kinases [2] = biological target: T2, CDKs and other kinases (Homo sapiens, UniProt P06493); assay: as above; type: biochemical; settings: CDK1B; for remaining activity at 10 µM: compound at 10 μM, read-out: residual activity (%) at 10 μM CDK1B; for Ki: read-out: CDK inhibition, Ki (μM) CDK1B
T2 construct: other: CDK1B; residual activity (%) at 10 μM CDK1B; compound at 10 μM
T2 sequence (P06493 whole entry): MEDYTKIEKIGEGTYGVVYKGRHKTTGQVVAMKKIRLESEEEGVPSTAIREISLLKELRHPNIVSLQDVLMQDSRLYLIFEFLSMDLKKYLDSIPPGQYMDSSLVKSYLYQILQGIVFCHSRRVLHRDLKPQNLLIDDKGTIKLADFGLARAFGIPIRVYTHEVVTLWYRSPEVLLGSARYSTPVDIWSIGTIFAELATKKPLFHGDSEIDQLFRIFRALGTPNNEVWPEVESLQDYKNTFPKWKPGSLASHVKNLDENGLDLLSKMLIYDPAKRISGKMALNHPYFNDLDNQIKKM
Outline: as §1

CDKs and other kinases [3] = biological target: T3, CDKs and other kinases (Homo sapiens, UniProt P50613); assay: as above; type: biochemical; settings: CDK7H; for remaining activity at 10 µM: compound at 10 μM, read-out: residual activity (%) at 10 μM CDK7H; for Ki: read-out: CDK inhibition, Ki (μM) CDK7H
T3 construct: other: CDK7H; residual activity (%) at 10 μM CDK7H; compound at 10 μM
T3 sequence (P50613 whole entry): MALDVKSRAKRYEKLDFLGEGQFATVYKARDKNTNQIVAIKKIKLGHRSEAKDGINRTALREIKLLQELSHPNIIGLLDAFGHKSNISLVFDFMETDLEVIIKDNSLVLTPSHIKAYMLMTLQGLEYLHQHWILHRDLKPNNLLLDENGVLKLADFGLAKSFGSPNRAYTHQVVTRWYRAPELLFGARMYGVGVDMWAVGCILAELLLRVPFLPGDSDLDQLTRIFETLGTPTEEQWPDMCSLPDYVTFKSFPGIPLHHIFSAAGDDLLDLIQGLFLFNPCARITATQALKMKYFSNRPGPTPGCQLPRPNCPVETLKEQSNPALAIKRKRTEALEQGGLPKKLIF
Outline: as §1

CDK6/D3 = CDK6/D3 (Homo sapiens, UniProt Q00534); assay: ADP Glo Kinase assay CDK6/D3; type: biochemical; settings: CDK6D3; for remaining activity at 10 µM: compound at 10 μM, read-out: residual activity (%) at 10 μM CDK6D3; for Ki: read-out: CDK inhibition, Ki (μM) CDK6D3
Sequence of CDK6/D3 (Q00534 whole entry): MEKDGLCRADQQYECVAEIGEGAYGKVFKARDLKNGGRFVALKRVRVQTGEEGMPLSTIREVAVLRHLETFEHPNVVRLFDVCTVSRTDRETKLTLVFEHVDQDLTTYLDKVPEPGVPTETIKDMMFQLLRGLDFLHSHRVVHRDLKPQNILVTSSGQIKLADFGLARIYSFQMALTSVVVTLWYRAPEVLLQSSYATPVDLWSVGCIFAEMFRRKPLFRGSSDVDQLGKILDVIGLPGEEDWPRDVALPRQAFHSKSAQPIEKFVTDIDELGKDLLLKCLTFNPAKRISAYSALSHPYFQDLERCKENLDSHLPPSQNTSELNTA
Sequence of CDK6/D3 (P30281 whole entry partner): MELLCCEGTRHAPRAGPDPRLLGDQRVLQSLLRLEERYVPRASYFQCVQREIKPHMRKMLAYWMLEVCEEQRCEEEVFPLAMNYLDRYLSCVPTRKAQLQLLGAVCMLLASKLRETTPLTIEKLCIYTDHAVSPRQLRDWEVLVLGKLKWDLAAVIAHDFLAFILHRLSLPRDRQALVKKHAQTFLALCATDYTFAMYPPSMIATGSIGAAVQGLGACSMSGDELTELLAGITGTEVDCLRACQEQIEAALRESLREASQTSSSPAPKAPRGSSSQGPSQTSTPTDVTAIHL
Outline: (§2)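 In-house ADP-Glo assay: CDK4/D1 or CDK6/D3 with RB-CTF substrate in […] Tris pH 7.5, 20 mM MgCl2, 0.4 mM DTT, 0.1 mg/ml BSA; ATP-started, 40 min at 37° C.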

leukemia cell lines = assay: Resazurin cell viability assay on leukemia cell lines (72 h growth inhibition, GI50); type: cell-based; settings: Homo sapiens, MV4-11 cells
Outline: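 MTT assay for solid tumour lines and resazurin assay for leukaemia lines, run by reported methods. GI50, the concentration giving 50% growth inhibition, was obtained by non-linear regression.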

CDK4/D1 = CDK4/D1 (Homo sapiens, UniProt P11802); assay: ADP Glo Kinase assay CDK4/D1; type: biochemical; settings: CDK4D1; for remaining activity at 10 µM: compound at 10 μM, read-out: residual activity (%) at 10 μM CDK4D1; for Ki: read-out: CDK inhibition, Ki (μM) CDK4D1
Sequence of CDK4/D1 (P11802 whole entry): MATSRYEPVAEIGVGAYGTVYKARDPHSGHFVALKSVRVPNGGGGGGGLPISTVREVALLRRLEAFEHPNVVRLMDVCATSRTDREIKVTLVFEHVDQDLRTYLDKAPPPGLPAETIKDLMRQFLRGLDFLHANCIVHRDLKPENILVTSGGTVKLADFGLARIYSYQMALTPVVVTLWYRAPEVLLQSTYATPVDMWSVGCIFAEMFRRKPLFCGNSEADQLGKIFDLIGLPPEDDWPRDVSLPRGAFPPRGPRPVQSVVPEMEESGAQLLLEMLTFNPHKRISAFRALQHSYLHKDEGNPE
Sequence of CDK4/D1 (P24385 whole entry partner): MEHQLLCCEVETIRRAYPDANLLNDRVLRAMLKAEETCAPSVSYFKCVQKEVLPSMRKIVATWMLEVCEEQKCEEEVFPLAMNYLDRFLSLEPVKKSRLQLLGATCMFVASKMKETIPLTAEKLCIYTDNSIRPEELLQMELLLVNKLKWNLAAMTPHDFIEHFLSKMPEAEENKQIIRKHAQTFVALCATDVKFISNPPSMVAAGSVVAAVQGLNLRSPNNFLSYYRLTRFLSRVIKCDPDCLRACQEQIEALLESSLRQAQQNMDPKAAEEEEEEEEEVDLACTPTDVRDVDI
Outline: as §2

Sequence of CDK9/T1 (P50750 whole entry): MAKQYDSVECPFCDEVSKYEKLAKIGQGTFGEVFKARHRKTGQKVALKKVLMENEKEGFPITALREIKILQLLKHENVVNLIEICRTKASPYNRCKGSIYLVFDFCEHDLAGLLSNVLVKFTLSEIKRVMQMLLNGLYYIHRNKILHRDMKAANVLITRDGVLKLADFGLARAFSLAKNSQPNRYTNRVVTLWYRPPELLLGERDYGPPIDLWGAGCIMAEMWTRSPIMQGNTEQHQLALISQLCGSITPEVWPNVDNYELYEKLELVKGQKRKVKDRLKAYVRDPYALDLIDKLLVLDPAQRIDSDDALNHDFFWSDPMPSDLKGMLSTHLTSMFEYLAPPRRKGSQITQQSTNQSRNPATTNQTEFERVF
Sequence of CDK9/T1 (O60563 whole entry partner): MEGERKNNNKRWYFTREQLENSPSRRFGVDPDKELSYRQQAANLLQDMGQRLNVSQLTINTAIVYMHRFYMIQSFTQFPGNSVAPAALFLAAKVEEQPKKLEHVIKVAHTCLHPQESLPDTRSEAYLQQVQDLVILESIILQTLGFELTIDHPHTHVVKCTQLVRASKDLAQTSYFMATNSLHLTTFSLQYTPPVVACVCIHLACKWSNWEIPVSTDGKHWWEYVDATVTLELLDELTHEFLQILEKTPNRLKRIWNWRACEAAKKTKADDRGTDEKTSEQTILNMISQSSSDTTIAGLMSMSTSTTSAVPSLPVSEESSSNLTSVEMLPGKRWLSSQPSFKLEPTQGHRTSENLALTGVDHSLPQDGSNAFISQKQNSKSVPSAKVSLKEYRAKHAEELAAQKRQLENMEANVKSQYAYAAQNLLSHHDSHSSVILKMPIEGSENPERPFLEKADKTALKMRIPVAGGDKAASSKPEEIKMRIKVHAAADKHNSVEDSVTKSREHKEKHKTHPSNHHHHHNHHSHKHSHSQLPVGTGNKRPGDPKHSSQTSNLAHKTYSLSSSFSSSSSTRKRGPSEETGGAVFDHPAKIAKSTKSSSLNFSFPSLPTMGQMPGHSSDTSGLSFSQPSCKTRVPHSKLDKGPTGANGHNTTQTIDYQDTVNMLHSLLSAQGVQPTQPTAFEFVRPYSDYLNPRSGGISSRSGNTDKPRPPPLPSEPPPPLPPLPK

| SMILES | Ki (CDK9/T1) [µM] | remaining activity at 10 µM (CDKs and other kinases [1]) [%] | remaining activity at 10 µM (CDKs and other kinases [2]) [%] | residual activity at 10 µM (CDKs and other kinases [3]) [%] | remaining activity at 10 µM (CDK6/D3) [%] | GI50 (leukemia cell lines) [µM] | remaining activity at 10 µM (CDK4/D1) [%] | remaining activity at 10 µM (CDKs and other kinases [3]) [%] | Ki (CDKs and other kinases [1]) [µM] | Ki (CDKs and other kinases [2]) [µM] | Ki (CDKs and other kinases [3]) [µM] | Ki (CDK6/D3) [µM] | Ki (CDK4/D1) [µM] |
| --- | --- | --- | --- | --- | --- | --- | --- | --- | --- | --- | --- | --- | --- |
| Cc1cnc(N[C@H]2CC[C@H](NC3CCN(C)CC3)CC2)nc1-c1cnc2ccc(-c3ccccc3)cn12 [Compound 90, (1r,4r)-N^1-(5-Methyl-4-(6-phenylimidazo[1,2-a]pyridin-3-yl)pyrimidin-2-yl)-N4-(1-methylpiperidin-4-yl) cyclohexane-1,4-diamine] | 0.211 | 44 | 57 | 295 | 80 | 0.229 ± 0.015 | 24 |  |  |  |  |  |  |
| Cc1cnc(N[C@H]2CC[C@@H](N)CC2)nc1-c1cnc2ccc(-c3ccccc3)cn12 [Compound 91, (1s,4s)-N^1-(5-Methyl-4-(6-phenylimidazo[1,2-a]pyridin-3-yl)pyrimidin-2-yl)cyclohexane-1,4-diamine] | 0.082 | 7 | 5 |  | 41 | 0.014 ± 0.007 | 17 | 19 |  |  |  |  |  |
| Cc1cnc(N[C@H]2CC[C@@H](N)CC2)nc1-c1cnc2ccc(Nc3cccnc3)cn12 [Compound 92, (1s,4s)-N^1-(5-Methyl-4-(6-(pyridin-3-ylamino)imidazo [1,2-a]pyridin-3-yl)pyrimidin-2-yl)cyclohexane-1,4-diamine] | 0.089 | 27 | 22 |  | 58 | 0.179 ± 0.061 | 37 | 27 |  |  |  |  |  |
| Cc1cnc(N[C@H]2CC[C@@H](N)CC2)nc1-c1cnc2ccc(Nc3cncnc3)cn12 [Compound 93, (1s,4s)-N^1-(5-Methyl-4-(6-(pyrimidin-5-ylamino)imidazo [1,2-a]pyridin-3-yl)pyrimidin-2-yl)cyclohexane-1,4-diamine] | 0.071 | 31 | 35 |  | 69 | 0.336 ± 0.082 | 28 | 49 |  |  |  |  |  |
| Cc1cnc(NC2CCCC(N)C2)nc1-c1cnc2ccc(-c3ccccc3)cn12 (stereo not drawn) [Compound 94, N^1-(5-Methyl-4-(6-phenylimidazo[1,2-a]pyridin-3-yl)pyrimidin-2-yl)cyclohexane-1,3-diamine] | 0.388 | 12 | 20 |  | 45 | 0.748 ± 0.063 | 25 | 10 |  |  |  |  |  |
| Cc1cnc(NC2CCCC(N)C2)nc1-c1cnc2ccc(Nc3cccnc3)cn12 (stereo not drawn) [Compound 95, N^1-(5-Methyl-4-(6-(pyridin-3-ylamino)imidazo[1,2-a]pyridin-3-yl)pyrimidin-2-yl)cyclohexane-1,3-diamine] | 0.198 | 28 | 59 |  | 76 | 0.646 ± 0.129 | 76 | 33 |  |  |  |  |  |

Next, values leading:

| Ki (CDK9/T1) [µM] | remaining activity at 10 µM (CDKs and other kinases [1]) [%] | remaining activity at 10 µM (CDKs and other kinases [2]) [%] | residual activity at 10 µM (CDKs and other kinases [3]) [%] | remaining activity at 10 µM (CDK6/D3) [%] | GI50 (leukemia cell lines) [µM] | remaining activity at 10 µM (CDK4/D1) [%] | remaining activity at 10 µM (CDKs and other kinases [3]) [%] | Ki (CDKs and other kinases [1]) [µM] | Ki (CDKs and other kinases [2]) [µM] | Ki (CDKs and other kinases [3]) [µM] | Ki (CDK6/D3) [µM] | Ki (CDK4/D1) [µM] | SMILES |
| --- | --- | --- | --- | --- | --- | --- | --- | --- | --- | --- | --- | --- | --- |
| 0.193 | 37 | 63 |  | 90 | > 10 | 49 | 63 |  |  |  |  |  | Cc1cnc(NC2CCCC(N)C2)nc1-c1cnc2ccc(Nc3cncnc3)cn12 (stereo not drawn) [Compound 96, N^1-(5-Methyl-4-(6-(pyrimidin-5-ylamino)imidazo[1,2-a]pyridin-3-yl)pyrimidin-2-yl)cyclohexane-1,3-diamine] |
| 0.016 | 32 | 28 |  | 39 | 0.058 ± 0.002 | 54 | 9 |  |  |  |  |  | Cc1cnc(NC2CCC(N(C)C)CC2)nc1-c1cnc2ccc(-c3ccccc3)cn12 (stereo not drawn) [Compound 97, N^1,N^1-Dimethyl-N^4-(5-methyl-4-(6-phenylimidazo[1,2-^a]pyridin-3-yl)pyrimidin-2-yl)cyclohexane-1,4-diamine] |
| 0.004 |  |  |  |  | 0.153 ± 0.021 |  |  | 0.31 | 1.5 | 1.67 | 0.53 | 0.78 | Cc1cnc(NC2CCC(N(C)C)CC2)nc1-c1cnc2ccc(Nc3cccnc3)cn12 (stereo not drawn) [Compound 98, N^1,N^1-Dimethyl-N^4-(5-Methyl-4-(6-(pyridin-3-ylamino)imidazo[1,2-a]pyridin-3-yl)pyrimidin-2-yl)cyclohexane-1,4-diamine] |
| 0.006 |  |  |  |  | 0.265 ± 0.034 |  |  | 0.48 | 1.66 | 3.1 | 0.51 | 1.16 | Cc1cnc(NC2CCC(N(C)C)CC2)nc1-c1cnc2ccc(Nc3cncnc3)cn12 (stereo not drawn) [Compound 99, N^1,N^1-dimethyl-N^4-(5-Methyl-4-(6-(pyrimidin-5-ylamino)imidazo[1,2-a]pyridin-3-yl)pyrimidin-2-yl)cyclohexane-1,4-diamine] |
| > 5 | 79 | 87 |  | 84 | > 10 | 96 | 98 |  |  |  |  |  | Cc1cnc(N[C@]23C[C@@]4(C)C[C@](C)(C[C@](O)(C4)C2)C3)nc1-c1cnc2ccc(-c3ccccc3)cn12 [Compound 100, (1s,3R,5S,7r)-3,5-Dimethyl-7-((5-methyl-4-(6-phenylimidazo[1,2-a]pyridin-3-yl)pyrimidin-2-yl)amino)adamantan-1-ol] |
| 0.561 | 41 | 60 |  | 100 | > 10 | 97 | 85 |  |  |  |  |  | Cc1cnc(N[C@]23C[C@@]4(C)C[C@](C)(C[C@](O)(C4)C2)C3)nc1-c1cnc2ccc(Nc3cccnc3)cn12 [Compound 101, (1s,3R,5S,7r)-3,5-Dimethyl-7-((5-methyl-4-(6-(pyridin-3-ylamino)imidazo[1,2-a]pyridin-3-yl)pyrimidin-2-yl)amino)adamantan-1-ol] |
| 0.109 | 22 | 36 |  | 100 | 0.059 ± 0.019 | 73 | 85 |  |  |  |  |  | Cc1cnc(N[C@]23C[C@@]4(C)C[C@](C)(C[C@](O)(C4)C2)C3)nc1-c1cnc2ccc(Nc3cncnc3)cn12 [Compound 102, (1s,3R,5S,7r)-3,5-Dimethyl-7-((5-methyl-4-(6-(pyrimidin-5-ylamino)imidazo[1,2-a]pyridin-3-yl)pyrimidin-2-yl)amino)adamantan-1-ol] |
| 0.203 | 1 | 4 |  | 45 | > 10 | 30 | 40 |  |  |  |  |  | Cc1cnc(NC2CCOCC2)nc1-c1cnc2ccc(Nc3cccnc3)cn12 [Compound 103, 3-(5-Methyl-2-((tetrahydro-2H-pyran-4-yl)amino)pyrimidin-4-yl)-N-(pyridin-3-yl)imidazo[1,2-a]pyridin-6-amine] |
| 0.155 | 2 | 4 |  | 73 | 4.76 ± 1.16 | 70 | 57 |  |  |  |  |  | Cc1cnc(NC2CCOCC2)nc1-c1cnc2ccc(Nc3cncnc3)cn12 [Compound 104, 3-(5-Methyl-2-((tetrahydro-2H-pyran-4-yl)amino)pyrimidin-4-yl)-N-(pyrimidin-5-yl)imidazo[1,2-a]pyridin-6-amine] |
